Data on seven molecules can be found in PubChem BioAssay (NCI).

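All cell lines were grown in 96-well plates and treated with compound for 48 hours. TGI is the concentration that stops growth completely.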 Bounds are passed on as bounds.

Among the test systems are MALME-3M melanoma; TK-10 renal; SF-268 CNS; SK-MEL-5 melanoma; SW-620 colon; MOLT-4 leukemia; OVCAR-3 ovarian; RPMI-8226 leukemia; A498 renal; SK-OV-3 ovarian; UACC-257 melanoma; HOP-62 NSCLC; OVCAR-5 ovarian; MDA-N; A549 NSCLC; CCRF-CEM leukemia; OVCAR-4 ovarian; HCT-116 colon; HCC-2998 colon; SNB-75 CNS.
What all share (experiment): inhibition of tumour cell growth, NCI panel, 48 h

Consider `COC(=O)[C@]1(c2cc3ccccc3[nH]2)CC2CN(CC(=O)N(C)OC)C1C1OC(C)(C)OC21` (stereo not given in full), for which the TGI in the assay with MALME-3M melanoma was greater than 100 µM; with TK-10 renal it was greater than 100 µM; in the assay on SF-268 CNS, greater than 100 µM; in the assay with SK-MEL-5 melanoma it was greater than 100 µM; with SW-620 colon it was greater than 100 µM; with MOLT-4 leukemia, 49.9 µM. Besides, the TGI with OVCAR-3 ovarian is greater than 100 µM; in the assay with RPMI-8226 leukemia, 74 µM; with A498 renal, 91.7 µM; with SK-OV-3 ovarian, greater than 100 µM; with UACC-257 melanoma, greater than 100 µM; in the assay with HOP-62 NSCLC, greater than 100 µM. Further, the TGI with OVCAR-5 ovarian, with MDA-N, with A549 NSCLC, in the assay on CCRF-CEM leukemia, in the assay with OVCAR-4 ovarian and in the assay with HCT-116 colon was greater than 100 µM each time. Moreover, the TGI in the assay on HCC-2998 colon and in the assay on SNB-75 CNS was greater than 100 µM each time.
On to `COc1ccc(-c2nc3ccc(C)cc3o2)c(OC)c1`, for which the TGI in the assay on MALME-3M melanoma is 42.1 µM; in the assay on TK-10 renal, 76.5 µM; in the assay on SF-268 CNS it was 77.4 µM; in the assay on SK-MEL-5 melanoma it was 43.3 µM; in the assay with SW-620 colon, greater than 86 µM; in the assay with MOLT-4 leukemia, 52.9 µM. In addition, the TGI with OVCAR-3 ovarian was 46.9 µM; in the assay on RPMI-8226 leukemia, 49.1 µM; with A498 renal, 46.5 µM; with SK-OV-3 ovarian it was greater than 100 µM; in the assay on UACC-257 melanoma, 46.5 µM; in the assay with HOP-62 NSCLC, greater than 56 µM. Further, the TGI was 42 µM in the assay on OVCAR-5 ovarian; 64.4 µM with MDA-N; greater than 67.4 µM in the assay on A549 NSCLC; 65.8 µM in the assay with CCRF-CEM leukemia; 74.1 µM in the assay with OVCAR-4 ovarian; 35.8 µM in the assay on HCT-116 colon. The TGI with HCC-2998 colon amounted to 45.8 µM; with SNB-75 CNS, 54.4 µM.
As to `COC(=O)C(Cc1ccccc1)NS(=O)(=O)c1ccc(-c2c3nc(c(-c4ccc(S(=O)(=O)NC(Cc5ccccc5)C(=O)OC)cc4)c4ccc([nH]4)c(-c4ccc(S(=O)(=O)NC(Cc5ccccc5)C(=O)OC)cc4)c4nc(c(-c5ccc(S(=O)(=O)NC(Cc6ccccc6)C(=O)OC)cc5)c5ccc2[nH]5)C=C4)C=C3)cc1` (stereo not given), the TGI in the assay on MALME-3M melanoma, in the assay with TK-10 renal, in the assay on SF-268 CNS, with SK-MEL-5 melanoma, in the assay with SW-620 colon and in the assay on MOLT-4 leukemia was greater than 100 µM each time. For the same molecule, the TGI in the assay with OVCAR-3 ovarian, with RPMI-8226 leukemia, in the assay with A498 renal, with SK-OV-3 ovarian, with UACC-257 melanoma and in the assay on HOP-62 NSCLC was greater than 100 µM throughout. In addition, the TGI in the assay with OVCAR-5 ovarian, in the assay with MDA-N, with A549 NSCLC, with CCRF-CEM leukemia, in the assay on OVCAR-4 ovarian and in the assay on HCT-116 colon was greater than 100 µM each time. Moreover, the results for the TGI in the assay with HCC-2998 colon and in the assay with SNB-75 CNS were greater than 100 µM and 31.5 µM, respectively.
In the case of `COc1cc2c[n+](C)c3c4ccccc4ccc3c2cc1OC`, the TGI with MALME-3M melanoma was 5.53 µM; in the assay with TK-10 renal it was greater than 100 µM; in the assay on SF-268 CNS it was 6.77 µM; in the assay with SK-MEL-5 melanoma it was 12.9 µM; in the assay with SW-620 colon, greater than 63.6 µM; with MOLT-4 leukemia, 20.6 µM. Besides, the TGI is 34.9 µM in the assay with OVCAR-3 ovarian; 10.1 µM with RPMI-8226 leukemia; greater than 65.2 µM in the assay with A498 renal; 32.5 µM with SK-OV-3 ovarian; 21 µM with UACC-257 melanoma; 37.4 µM in the assay with HOP-62 NSCLC. The TGI is greater than 100 µM with OVCAR-5 ovarian; greater than 36.7 µM in the assay on MDA-N; 23.2 µM with A549 NSCLC; greater than 100 µM in the assay with CCRF-CEM leukemia; 28.6 µM in the assay with OVCAR-4 ovarian; greater than 67.7 µM with HCT-116 colon. Also, the values for the TGI with HCC-2998 colon and in the assay with SNB-75 CNS were 42.4 µM and 18.7 µM, respectively.
With `CCC(=S)N(C)O`, the TGI in the assay with MALME-3M melanoma was greater than 100 µM; in the assay on TK-10 renal it was greater than 95.3 µM; in the assay with SF-268 CNS it was greater than 100 µM; in the assay on SK-MEL-5 melanoma it was 51 µM; in the assay with SW-620 colon, greater than 100 µM; in the assay with MOLT-4 leukemia it was 46.9 µM. The TGI was greater than 100 µM in the assay on OVCAR-3 ovarian; 21.8 µM in the assay on RPMI-8226 leukemia; greater than 100 µM in the assay with A498 renal; greater than 100 µM in the assay with SK-OV-3 ovarian; greater than 100 µM in the assay with UACC-257 melanoma; greater than 95.3 µM with HOP-62 NSCLC. The TGI in the assay with OVCAR-5 ovarian is greater than 100 µM; in the assay on MDA-N it was greater than 100 µM; in the assay with A549 NSCLC, greater than 100 µM; in the assay on CCRF-CEM leukemia, 12.3 µM; with OVCAR-4 ovarian, greater than 100 µM; with HCT-116 colon it was 30.9 µM. Moreover, the TGI in the assay on HCC-2998 colon was greater than 95.7 µM; in the assay on SNB-75 CNS, greater than 95.4 µM.
`CC(C)(C)SC1=CCC[C@@H](P(=O)(c2ccccc2)c2ccccc2)[C@@H]2CCC[C@@H]12`: the TGI amounted to 36.3 µM in the assay on MALME-3M melanoma; 32.3 µM in the assay with TK-10 renal; 35.5 µM in the assay on SF-268 CNS; 32.8 µM in the assay with SK-MEL-5 melanoma; 85.3 µM in the assay on SW-620 colon; 38.1 µM in the assay on MOLT-4 leukemia. The TGI with OVCAR-3 ovarian is 32.7 µM; with RPMI-8226 leukemia, 41.9 µM; in the assay on A498 renal, 29.4 µM; in the assay with SK-OV-3 ovarian, 33.8 µM; with UACC-257 melanoma, 31.8 µM; in the assay on HOP-62 NSCLC, 31.8 µM. Also, the TGI stood at 27.1 µM in the assay on OVCAR-5 ovarian; 30.3 µM in the assay on MDA-N; 35.2 µM with A549 NSCLC; 60.6 µM in the assay with CCRF-CEM leukemia; 31.4 µM with OVCAR-4 ovarian; 27.3 µM in the assay with HCT-116 colon. Besides, the results for the TGI with HCC-2998 colon and in the assay with SNB-75 CNS were 29.9 µM and 26.5 µM, respectively.
As for `COC(=O)c1ccccc1CC1Cc2cc3c(cc2C1)CCC3`, the TGI in the assay on MALME-3M melanoma was 52 µM; in the assay on TK-10 renal it was greater than 100 µM; with SF-268 CNS, greater than 100 µM; with SK-MEL-5 melanoma, 55.3 µM; in the assay with SW-620 colon, greater than 100 µM; in the assay on MOLT-4 leukemia, 38.8 µM. The TGI is greater than 100 µM in the assay with OVCAR-3 ovarian; 40.1 µM with RPMI-8226 leukemia; greater than 100 µM in the assay on A498 renal; greater than 100 µM with SK-OV-3 ovarian; 73.1 µM in the assay with UACC-257 melanoma; greater than 100 µM in the assay with HOP-62 NSCLC. Further, the TGI in the assay with OVCAR-5 ovarian was greater than 100 µM; in the assay with MDA-N it was greater than 100 µM; in the assay with A549 NSCLC it was greater than 100 µM; with CCRF-CEM leukemia it was 39.1 µM; with OVCAR-4 ovarian, greater than 100 µM; in the assay on HCT-116 colon it was 83.1 µM. Also, the TGI with HCC-2998 colon and in the assay on SNB-75 CNS was greater than 100 µM throughout.
